How the values were obtained:
[1] = Zeta potential of cationic nanofibers before and after drug encapsulation (piperacillin); type: physicochemical; details: for zeta potential of nanofibers after drug loading: after piperacillin loading; for zeta potential of nanofibers before drug loading: before piperacillin loading
From the text: The zeta potential of cationic nanofibers before and after drug encapsulation was investigated using the drug piperacillin and C-4 and C-14. […] The zeta potential values of nanofibers of C-14 before and after drug loading were 36.3 and 21.1 mV, respectively. The reduced zeta potential was attributed to the electrostatic interaction between cationic nanofiber and the drug. This proves the formation of a complex between cationic nanofiber and the drug.

[2] = Nanofiber morphology by TEM; type: physicochemical; details: C-4 200 mg/L, C-14 80 mg/L
Procedure: The morphologies of the cationic compounds were analyzed by TEM (FEI Tecnai G^2 F20 electron microscope). Cationic compounds solution (5 microliters) were placed on a copper grid coated with carbon film and incubated for 1 minute. Phosphotungstic acid solution (0.1 w/v, 5 microliters) was applied and incubated for another minute. The extra sample on the grid was absorbed by filter paper. The samples were air-dried at room temperature. The TEM observations were carried out with an electron kinetic energy of 200 keV.
FIGS. 2A to 2C are transmission electron micrographs (TEM) of a cast film of the nanofibers formed with C-4 at different magnifications.

[3] = tested on: S. aureus (ATCC No. 6538); assay: MIC by broth microdilution (OD600 growth inhibition); type: cell-based, Staphylococcus aureus; details: for growth inhibition of S. aureus by nanofibers alone (OD): blank nanofibers without drug
Procedure: The minimum inhibitory concentrations (MICs) of the penG-loaded nanofibers were measured using a broth microdilution method. First, penG-loaded nanofiber solutions were diluted to give final penG concentrations of 0.05, 0.1, 0.5, 1.0, 5.0 and 10.0 mg/L. S. aureus was grown in tryptic soy broth (TSB) at 37° C. with 300 rpm. The optical density (OD) of the S. aureus solution was adjusted to OD600 nm=0.1 by the addition of TSB. This S. aureus solution was further diluted 100 times (5.7×10^6 CFU/mL). The penG-loaded nanofiber solution (100 microliters) was transferred to each well of a 96 well plate (NUNC), followed by the addition of 100 microliters of the S. aureus solution. TSB was used as a control. The optical density readings of S. aureus solutions were monitored by measuring OD600 nm at predetermined times (0 hours and 18 hours). The assay was performed in four replicates for each sample and the experiments were repeated at least three times.

[4] = Nanofiber dimensions by AFM; type: physicochemical; details: film/solution on mica
Procedure: Atomic force microscopy (AFM) images were acquired on commercial instrumentation under fluid in intermittent contact (‘tapping’) mode at a 0.5 Hz scan rate with silicon on nitride cantilevers of spring constant about 0.35 N/m. For this study, images were collected over scan areas from 1×1 micrometer to 10×10 micrometers at 1024×1024 pixel resolution. Samples were prepared by depositing 60 microliters of polymer solution (at a concentration appropriate for imaging) in water on mica. The statistical mean height (zm) of the nanoparticles was obtained through Gwyddion software for particle analysis using height threshold algorithm.
The dry nanofiber AFM (FIG. 3A) and solution AFM (FIGS. 3B and 3C) of nanofibers formed with C-4 show anisotropic structures having considerably shorter lengths and an average diameter of 4 nm.

[5] = Critical micelle concentration of cationic compounds; type: physicochemical; details: in water

Row | Compound | zeta potential of nanofibers after drug loading [1] [mV] | zeta potential of nanofibers before drug loading [1] [mV] | fiber length (TEM) [2] | growth inhibition of S. aureus by nanofibers alone (OD) [3] | average fiber diameter (AFM) [4] [nm] | CMC [5] [mg/L] | fiber diameter (TEM) [2] [nm] | minimum concentration suppressing growth (MIC) ([3]; penG concentration, 18 hours, 5.7×10^6 CFU/mL, TSB) [µg/mL]
1 | NCCCCNC(=O)Nc1ccc(CNC(=O)c2ccc(C(=O)NCc3ccc(NC(=O)NCCCCN)cc3)cc2)cc1 [Compound C-4] | 23.1 | 35.2 | several hundred | do not inhibit growth | 4 | 12 |  | 
2 | NCc1ccc(CNC(=O)Nc2ccc(CNC(=O)c3ccc(C(=O)NCc4ccc(NC(=O)NCc5ccc(CN)cc5)cc4)cc3)cc2)cc1 [Compound C-14] | 21.1 | 36.3 | several hundred | do not inhibit growth |  | 20 | ~5 | 
3 | CC1(C)S[C@@H]2[C@H](NC(=O)Cc3ccccc3)C(=O)N2[C@H]1C(=O)[O-].[K+] [penG, Penicillin G potassium salt, reference compound] |  |  |  |  |  |  |  | 0.05
